Experimental data: US20040121474A1, “Detection and evaluation of chemically-mediated and ligand-mediated t-cell activation using optophoretic analysis” (Genoptix, Inc, priority 2002, published 2004)
Structures can show the parent of a compound that is named as a salt. Where two headings read alike, the source gives them in different places.

Legend:
[1] = test system: wild type Staphylococcus aureus; test: Bacterial screen for drug sensitivity, escape velocity; type: cell-based; settings: 5 μg/ml Erythromycin
Protocol: (§1) In this experiment, escape velocity was measured over time in wild type Staphylococcus aureus and an Erythromycin-resistant strain. 5 μg/ml of Erythromycin was applied to both the wild type Staphylococcus aureus and an Erythromycin-resistant strain. Escape velocity measurements were taken at time zero, 30 minutes post-treatment, and 3 hours post-treatment. […] In this experiment, however, escape velocity measurements were made at time zero, 30 minutes post-treatment, and 1 hour post-treatment, and 2 hours post-treatment. A reduction in escape velocity of the Erythromycin-sensitive strain can be seen at 1 hour post-treatment.

[2] = test system: Erythromycin-resistant strain; test: as above; type: cell-based, Staphylococcus aureus; settings: 5 μg/ml Erythromycin
Protocol: as §1

Jurkat cells = test: Escape velocity, TNF-α effect on Jurkat cells; type: cell-based; settings: TNF inhibitor added with TNF
Protocol: After 48 hours of incubation, the cells were removed and centrifuged for 5 minutes at 5,000 rpm. Then the cells were resuspended in PBS/1% BSA and trypan blue. A higher power setting, 140 mW instead of 100 mW, was used for this experiment. The escape velocities were measured as follows:
In this experiment Leflunomide and Silymarin were added with TNF to see if the anticipated increase in escape velocity measurements could be counteracted by the presence of the TNF inhibitors.

[3] = test system: K562, BV-173, EM-3, and U-937 cells; test: Escape velocity, effect of Gleevec; type: cell-based; settings: 72 hours after exposure, all four cell types
From the text: The U-937 cells have no copies of the gene. The K-562 line of cells has, on average, one copy of the gene per cell. The BV-173 line of cells has, on average, three copies of the gene per cell. The EM-3 cell line has, on average, five copies of the gene per cell. […] FIG. 44 illustrates the measured escape velocities (average) for each of the four cell types. […] In addition, the decrease in escape velocity for the Gleevec-treated cells was more pronounced in those cell lines that had higher copy numbers of the Bcr-Abl gene.

[4] = test system: K-562, BV-173, EM-3, and U-937 cell lines; test: Fast scan analysis, effect of Gleevec; type: cell-based; settings: 1 μM Gleevec, 48 hours, U-937 cells excepted
From the text: (§2) FIGS. 30A and 30B show optical interrogation of a group of cells 610 using a fast scan analysis. In this method, a moving optical gradient 612 (laser beam) in the form of a line is moved relative to the cells 610. […] Instead, an image can be taken of the cells 610 prior to the scan to determine the starting position of each cell 610. […] The distances traveled can be obtained by images taken of the cells 610 before and after the scanning process. The optical gradient 612 is moved at a speed that is higher than the escape velocity of all the cells 610 within the group. In this manner, all of the cells 610 are left behind the moving optical gradient 612. In an alternate fast scan embodiment, the cells 610 are initially lined up at a starting position A. After aligning the cells 610, the optical gradient 612 is rapidly moved and their distance of travel is measured by optical imaging. It should be understood that fast scan analysis may include multiple scans or “sweeps” of the cells 610. Generally, it has been observed that multiple scans produce larger cell movements.

CEM/C2 = CEM/C2 cell line obtained from ATCC; cited from earlier work
CCRF-CEM = test: Escape velocity, topotecan on sensitive cell line; type: cell-based; settings: 10 μM topotecan, 6 hours
Protocol: In a fifth experiment, two different cell lines obtained from ATCC which have varying degrees of sensitivity to topoisomerase I inhibitors such as camptothecin and topotecan were subject to Optophoretic analysis. A group of cells from a parental cell line CCRF-CEM that is sensitive to camptothecin and topotecan were incubated for 6 hours with 10 μM topotecan. Another group of cells from the cell line CEM/C2, which are 970-fold less sensitive to camptothecin and topotecan, were also incubated for 6 hours with 10 μM topotecan. Control cells from both the CCRF-CEM and CEM/C2 cell lines were also tested. […] Escape velocity measurements were then taken using a 100 mW laser with a diameter of 28 pixels. […] Optophoretic analysis was thus able to score cross-resistance of camptothecin-resistant cell lines to topotecan, an analog of camptothecin.

U937 cells [5] = test: Escape velocity, characterization of topoisomerase inhibitors
U937 cells [6] = test: Escape velocity, PMA inhibition by bisindolymaleimide; type: cell-based; settings: for Escape velocity Ave.: four hours
From the text: The objective of this experiment was to test the effect of bisindolymaleimide on cells exposed to PMA. Bisindolymaleimide is a Protein Kinase C inhibitor and should block the effect of PMA on U937 cells and their escape velocities. As shown in this and prior experiments, exposure of U937 cells to PMA results in an increase in the escape velocity of the cells. Therefore, it is anticipated that addition of bisindolymaleimide will reduce or eliminate the increase in escape velocity caused by PMA. This has in fact been observed in the data shown below.
Bisindolymaleimide was tested at two concentrations: 200 ng/ml and 50 ng/ml. Samples not treated with bisindolymaleimide received an equivalent amount of the carrier, MeOH, as a control. […] The concentration of PMA tested was 10 ng/ml. Samples not receiving PMA received DMSO.
Once the flasks were prepared, they were incubated at 37° C. 5% CO2 for four hours. At the four hour timepoint, 300 μl of cells were removed from each flask and pelleted at 5000 rpm for 5 minutes. The cells were then resuspended in 6 ml PBS/1% BSA and 60 μl trypan blue.

[7] = test system: CD11b expression in HL-60 cells; test: FACS CD11b expression profile; type: cell-based; settings: 1% DMSO
Protocol: (§3) Fast scan analysis was also performed on HL-60 cells that were treated with PMA and DMSO. A time course evaluation of PMA treated HL-60 cells was performed with fast scan data taken at 16 hours, 24 hours, 40 hours, and 72 hours post-treatment with 400 ng/ml PMA. A control sample of HL-60 cells was also tested using EtOH as the vehicle for purposes of comparing the differentiated cells with the undifferentiated HL-60 cells. The PMA-treated and control cells were harvested and trypsinized. The samples were then resuspended in PBS/1% BSA. A set of samples was also obtained and left as pellets at 4° C. for subsequent FACS analysis.
FIG. 145 illustrates a histogram of the travel distance of the control cells as well as the PMA-treated cells at 16 hours, 24 hours, 40 hours, and 72 hours post-treatment. FIG. 146 illustrates the mean travel distances of the control cells as well as the PMA-treated cells at 16 hours, 24 hours, 40 hours, and 72 hours post-treatment. FIG. 147 illustrates the FACS CD11b expression profile in PMA-treated HL-60 cells as well as the control. CD11b is a known marker of cellular differentiation and is expressed on the surface of differentiating cells. […] The data illustrate that Optophoretic analysis can be used as an assay for the detection and quantification of cellular differentiation. […]

HL-60 cells = test: Fast scan analysis, differentiation of HL-60 cells; type: cell-based; settings: 1% DMSO
Protocol: as §3
A time course evaluation of DMSO treated HL-60 cells was performed with fast scan data taken at 16 hours, 24 hours, 40 hours, and 70 hours post-treatment with 1% DMSO. A control sample of HL-60 cells was also tested for purposes of comparing the differentiated cells with the undifferentiated HL-60 cells. The DMSO-treated and control cells were then harvested and resuspended in PBS/1% BSA. A set of samples was also obtained and left as pellets at 4° C. for subsequent FACS analysis.

U937 cells [8] = test system: U937 cells
Protocol: This experiment is designed to compare the effects of two concentrations of sodium salicylate on U937 cells. Sodium salicylate was prepared at two concentrations: 20 mM and 5 mM. The escape velocities of the cells was tested at 5 hours, 24 hours and 47 hours. At each timepoint, 30 μl of sample was pelleted at 5,000 rpm for 5 minutes and then resuspended in PBS/1% BSA and trypan blue.

Chang liver cells [9] = type: cell-based; settings: human, 1 μm
From the text: as §2
This experiment is designed to test the effect of ketoconazole on human liver cells. Ketoconazole induces toxicity in liver cells. The sample cells were Chang liver cells. The concentration of ketoconazole used to treat the cells was 1 μm. […]

Chang liver cells [10] = test: Escape velocity, toxicity of ketoconazole to liver cells; type: cell-based, human; settings: 1 μm of ketoconazole, 1.5 hours of treatment
Protocol: This experiment is designed to test the effect of ketoconazole on human liver cells. Ketoconazole induces toxicity in liver cells. The sample cells were Chang liver cells. The concentration of ketoconazole used to treat the cells was 1 μm. Escape velocity and fast scan protocols were applied to determine the impact, if any, of ketoconazole treatment. […] Consequently, Optophoresis was able to detect an effect on the escape velocity of treated cells within 1.5 hours of exposure to ketoconazole. FIGS. 44-45 show the fast scan results of ketoconazole-treated Chang liver cells. […] The ketoconazole-treated cells generally traveled a smaller distance as compared to the non-treated control.

SMILES: CC[C@H]1OC(=O)[C@H](C)[C@@H](O[C@H]2C[C@@](C)(OC)[C@@H](O)[C@H](C)O2)[C@H](C)[C@@H](O[C@@H]2O[C@H](C)C[C@H](N(C)C)[C@H]2O)[C@](C)(O)C[C@@H](C)C(=O)[C@H](C)[C@@H](O)[C@]1(C)O [Erythromycin]
- time post-treatment at which a reduction in escape velocity can be seen (FIG. 81) [1]: 1 h
- change of escape velocity over time (FIG. 80) ([1]; time zero, 30 minutes, 3 hours): decreases
- escape velocity (FIG. 80) [2]: same escape velocity as the untreated Erythromycin-sensitive strain

SMILES: Cc1oncc1C(=O)Nc1ccc(C(F)(F)F)cc1 [Leflunomide]
- effect on TNF-caused increase in escape velocity (FIG. 36) (Jurkat cells): mitigate the increase in escape velocity caused by TNF

SMILES: Cc1ccc(NC(=O)c2ccc(CN3CCN(C)CC3)cc2)cc1Nc1nccc(-c2cccnc2)n1 [Gleevec, imatinib mesylate]
- escape velocity as compared to non-treated cells (FIG. 40) [3]: significantly lower escape velocity
- mean travel distances as compared to non-treated controls (FIG. 41) [4]: lower mean travel distances

SMILES: CC[C@@]1(O)C(=O)OCc2c1cc1n(c2=O)Cc2cc3c(CN(C)C)c(O)ccc3nc2-1 [topotecan]
- less sensitive than parental cell line CCRF-CEM (CEM/C2): 970 fold
- decrease in escape velocity as compared to the CEM/C2 cells (FIG. 67) (CCRF-CEM): larger decrease in escape velocity
- shift in escape velocity as compared to the camptothecin-treated cells (FIG. 54) (U937 cells [5]; 4 μg/ml, four hours): larger shift in escape velocity
- cellular debris (U937 cells [5]; 10 μM and 20 μM topotecan, six hours): a significant amount of cellular debris was present
- cell death (U937 cells [5]; 10 μM topotecan, 24 hour): virtually all of the treated U937 cells were dead
- dead or necrotic cells (U937 cells [5]; 2.5, 5 and 10 μM topotecan, 4 hour): not a significant number of dead or necrotic cells

SMILES: CN(C)CCCn1cc(C2=C(c3c[nH]c4ccccc34)C(=O)NC2=O)c2ccccc21 [Bisindolymalemide, Bisindolymaleimide]
- Escape velocity Ave. (U937 cells [6]; 50 ng/ml bisindolymaleimide + 10 ng/ml PMA): 15.1 μm/sec
- Escape velocity Ave. (U937 cells [6]; 50 ng/ml bisindolymaleimide, no PMA): 13.9 μm/sec
- effect on PMA-caused shift in escape velocity (FIG. 33) (U937 cells [6]; 200 ng/ml BIMI for 30 minutes, then 10 ng/ml PMA): blocked the optophoretic shift in escape velocity
- Escape velocity Ave. (U937 cells [6]; 200 ng/ml bisindolymaleimide + 10 ng/ml PMA): 14.5 μm/sec
- Escape velocity Ave. (U937 cells [6]; 200 ng/ml bisindolymaleimide, no PMA): 14.0 μm/sec

SMILES: C[S+](C)[O-] [DMSO, dimethylsulfoxide]
- time after treatment at which a change in CD11b expression levels was detected [7]: 40 h
- time after treatment at which a noticeable decrease of the mean travel distance was detected (HL-60 cells): ≤ 16 h

SMILES: O=C([O-])c1ccccc1O.[Na+] [Sodium Salicylate, Sodium salicylate]
- shift in escape velocities (FIG. 37) (U937 cells [8]; 5 mM and 20 mM, 5 and 24 hours): slight but statistically significant shift in escape velocities
- Escape velocity Ave. (U937 cells [8]; 5 mM, 5 hours): 14.1
- Escape velocity Ave. (U937 cells [8]; 5 mM, 24 hours): 15.2
- Escape velocity Ave. (U937 cells [8]; 5 mM, 47 hours): 13.7
- Escape velocity Ave. (U937 cells [8]; 20 mM, 5 hours): 13.3
- Escape velocity Ave. (U937 cells [8]; 20 mM, 24 hours): 16.0
- cell viability (trypan blue) (U937 cells [8]; 20 mM, 47 hours): all cells were dead

SMILES: CC(=O)N1CCN(c2ccc(OCC3COC(Cn4ccnc4)(c4ccc(Cl)cc4Cl)O3)cc2)CC1 (stereo not shown) [ketoconazole]
- mean travel distance (Chang liver cells [9]): 20.97 μm
- escape velocity vs control (FIG. 46) (Chang liver cells [10]): marked decrease in escape velocity
